# Assays:
# [1] = test system: HPAF pancreatic cancer cell line; experiment: [3H]-thymidine incorporation (DNA synthesis), HPAF; assay type: cell-based; conditions: for proliferation (thymidine incorporation), % control / proliferation, % control (time course): mean±SEM
# Procedure: (§1) Cell culture. The following pancreatic cancer cell lines were used: MiaPaCa-2 and PANC-1 (poorly-differentiated); Capan-1 and Capan-2 (well-differentiated); and HPAF and AsPC-1 (pleomorphic). These were purchased from American Type Culture Collection (Rockville, Md.). PANC-1 and MiaPaCa-2 were grown in DMEM media; HPAF and AsPC-1 were grown in MEM media; and Capan-1 and Capan-2 were grown in-McCoy's media. Media were supplemented with 10% FBS, and the cells were grown as monolayers in a humidified atmosphere of […] and 5% CO2 at 37° C. The cells were regularly seeded into 75 cm^2 flask with media changed every other day. For experiments, cells were grown to 80% confluence, digested with trypsin-EDTA, and plated either in 12 or 24-well plates at a concentration of 50,000/ml, as appropriate.
# (§2) DNA synthesis by [^3H]-Thymidine incorporation. Cells were plated in 12 or 24-well plates. After reaching 70% confluence, they were incubated in serum-free media for 24 hours, which was then replaced with fresh serum-free media with or without the appropriate concentration of leukotriene B4 receptor antagonist LY293111 (62.5-1000 nM), LTB4 (100-400 nM), or both. After the appropriate period of culture, cellular DNA synthesis was assayed by adding 0.5 μCi/well of [^3H]-methyl-thymidine and incubating for another 2 hours. Then, the cells were washed twice with PBS, fixed with 10% trichloroacetic acid (“TCA”) for 30 minutes, and solubilized by adding 0.4 M NaOH to each well. Radioactivity, indicating incorporation of ^3H-thymidine into DNA, was measured by adding a scintillation cocktail and counting on a scintillation counter (LKB RackBeta, Wallac, Turku, Finland)
# [2] = test system: Capan-1 pancreatic cancer cell line; experiment: [3H]-thymidine incorporation (DNA synthesis), Capan-1; assay type: cell-based; conditions: mean±SEM; for proliferation (thymidine incorporation), % control: 24 hours
# Procedure: as §1, §2
# [3] = test system: PANC-1 pancreatic cancer cell line; experiment: [3H]-thymidine incorporation (DNA synthesis), PANC-1; assay type: cell-based; conditions: mean±SEM; for proliferation (thymidine incorporation), % control: 24 hours
# Procedure: as §1, §2
# [4] = test system: MiaPaCa-2 pancreatic cancer cells; experiment: Cell proliferation assay (cell number, Coulter counter); assay type: cell-based; conditions: 500 nM for 24, 48, and 72 hours (FIG. 2)
# Procedure: as §1
# Cell proliferation assay. Pancreatic cancer cells were seeded into 24-well microplates and incubated at 37° C. […] At the end of each time period, the cells were trypsinized to produce a single cell suspension, and the cell number in each well was determined using a Zi-Coulter Counter (Luton, Bedfordsire, United Kingdom).
# [5] = test system: MiaPaCa-2 pancreatic cancer cells; experiment: Morphological changes by phase-contrast microscopy, MiaPaCa-2; assay type: cell-based; conditions: MiaPaCa-2, 250 nM, as early as 4 hours after treatment; interpreted as reflecting apoptosis
# Procedure: Morphological changes using light microscope. Pancreatic cancer cells grown in 75 cm^2 flasks were treated with different concentrations of LY293111 for different periods of time. They were then viewed by phase-contrast microscopy, and photographs were taken.
# MiaPaCa-2 cells = experiment: TUNEL assay (flow cytometry), MiaPaCa-2; assay type: cell-based; conditions: control 1.5%
# Procedure: TUNEL assay. Apoptosis was measured by flow cytometry using a terminal deoxynucleotidyl transferase-mediated deoxyuridine triphosphate nick-end labeling (“TUNEL”) assay. Cells were treated with LY293111 for the appropriate period of time, then digested with trypsin-EDTA, washed with ice-cold PBS twice, and fixed in 10% paraformaldehyde on ice for 20 minutes. Cells were then washed with PBS, permeabilized with 70% ethanol for at least 4 hours, washed again with PBS and incubated with 2.5 units of terminal deoxynucleotidyl transferase (TdT enzyme) and 100 pmol Br-dUTP in DNA labeling solution for one hour at 37° C. Cells were then rinsed twice, resuspended in 0.1 ml fluorescein labeled anti-BrdU antibody solution in the dark for 30 minutes. Then 0.5 ml propidium iodide/RNase A solution was added, and the cells analyzed by flow cytometry at 488 nm excitation.
# [6] = test system: Bcl-2 in MCF-7 breast cancer cells; experiment: Bcl-2 expression by western blotting; assay type: cell-based; conditions: MCF-7, LY293111 500 nM
# [7] = test system: AsPc-1 human pancreatic tumor cell line xenograft; experiment: AsPc-1 xenograft tumor growth in athymic mice; assay type: in vivo; conditions: 0.01% LY293111 in the drinking water, started four days after s.c. injection of 3 million AsPc-1 cells
# Procedure: Athymic mice received a subcutaneous injection of 3 million cancer cells in 50 μl of serum-free media. The highly malignant and aggressive pancreatic tumor cell line, AsPc-1, was used in this experiment. The tumors were allowed to establish and grow for four days prior to treatment with 0.01% LY293111 in the drinking water.
# [8] = test system: pancreatic cancer cell lines; experiment: Proliferation of pancreatic cancer cell lines (summary statement); assay type: cell-based
# Procedure: as §1
# DNA synthesis by [^3H]-Thymidine incorporation. Cells were plated in 12 or 24-well plates. After reaching 70% confluence, they were incubated in serum-free media for 24 hours, which was then replaced with fresh serum-free media with or without the appropriate concentration of leukotriene B4 receptor antagonist LY293111 (62.5-1000 nM), LTB4 (100-400 nM), or both. […] Radioactivity, indicating incorporation of ^3H-thymidine into DNA, was measured by adding a scintillation cocktail and counting on a scintillation counter (LKB RackBeta, Wallac, Turku, Finland)
# [9] = test system: pancreatic, colonic, and breast cancer cell lines; experiment: Proliferation by thymidine incorporation and cell number, all lines studied; assay type: cell-based
# Procedure: as §2
# Cell proliferation assay. Pancreatic cancer cells were seeded into 24-well microplates and incubated at 37° C. After 24 hours, cells were cultured in serum-free media with or without 250 nM LY293111 for 24, 48, and 72 hours. At the end of each time period, the cells were trypsinized to produce a single cell suspension, and the cell number in each well was determined using a Zi-Coulter Counter (Luton, Bedfordsire, United Kingdom). […]
compound,measurement,setting,value
"CCCc1c(OCCCOc2cc(O)c(-c3ccc(F)cc3)cc2CC)cccc1Oc1ccccc1C(=O)O [LY293111, 2-(2-propyl-3-(3-(2-ethyl-4-(4-fluorophenyl)-5-hydroxyphenoxy)propoxy)-phenoxy)benzoic acid]",decrease of proliferation,"[1]; HPAF (FIG. 6B), LY293111 250 nM, 24 hours",50%
same,proliferation with combination of LTB4 and LY293111,"[1]; HPAF, 250 nM LY293111 + 100 nM LTB4, 24 hours",restored to almost the control level
same,"proliferation (thymidine incorporation), % control","[1]; HPAF, LY293111 62.5 nM, 24 hours",103.6 ± 21.8 % control
same,"proliferation (thymidine incorporation), % control","[1]; HPAF, LY293111 125 nM, 24 hours",97.6 ± 24.5 % control
same,"proliferation (thymidine incorporation), % control","[1]; HPAF, LY293111 250 nM, 24 hours",49.3 ± 9.0 % control
same,"proliferation, % control (time course)","[1]; HPAF, LY293111 500 nM, 6 h",67.5 ± 11.6 % control
same,"proliferation, % control (time course)","[1]; HPAF, LY293111 500 nM, 12 h",35.7 ± 8.9 % control
same,"proliferation, % control (time course)","[1]; HPAF, LY293111 500 nM, 24 h",12.4 ± 3.3 % control
same,"proliferation (thymidine incorporation), % control","[1]; HPAF, LY293111 500 nM, 24 hours",10.3 ± 3.0 % control
same,"proliferation (thymidine incorporation), % control","[1]; HPAF, LY293111 1000 nM, 24 hours",2.3 ± 1.4 % control
same,"proliferation (thymidine incorporation), % control","[2]; Capan-1, LY293111 62.5 nM",99.1 ± 4.8 % control
same,"proliferation (thymidine incorporation), % control","[2]; Capan-1, LY293111 125 nM",56.9 ± 4.9 % control
same,"proliferation (thymidine incorporation), % control","[2]; Capan-1, LY293111 250 nM",16.4 ± 2.0 % control
same,"proliferation, % control (time course)","[2]; Capan-1, LY293111 500 nM, 6 h",70.5 ± 8.7 % control
same,"proliferation, % control (time course)","[2]; Capan-1, LY293111 500 nM, 12 h",44.5 ± 10.2 % control
same,"proliferation, % control (time course)","[2]; Capan-1, LY293111 500 nM, 24 h",15.7 ± 3.4 % control
same,"proliferation (thymidine incorporation), % control","[2]; Capan-1, LY293111 500 nM",15.7 ± 3.4 % control
same,"proliferation (thymidine incorporation), % control","[2]; Capan-1, LY293111 1000 nM",0.2 ± 0.3 % control
same,"proliferation (thymidine incorporation), % control","[3]; PANC-1, LY293111 62.5 nM",89.4 ± 4.4 % control
same,"proliferation (thymidine incorporation), % control","[3]; PANC-1, LY293111 125 nM",65.2 ± 3.8 % control
same,"proliferation, % control (time course)","[3]; PANC-1, LY293111 500 nM, 6 h",60.2 ± 6.5 % control
same,"proliferation, % control (time course)","[3]; PANC-1, LY293111 500 nM, 12 h",48.9 ± 5.3 % control
same,"proliferation, % control (time course)","[3]; PANC-1, LY293111 500 nM, 24 h",13.6 ± 1.0 % control
same,"proliferation (thymidine incorporation), % control","[3]; PANC-1, LY293111 500 nM",12.4 ± 3.1 % control
same,"proliferation (thymidine incorporation), % control","[3]; PANC-1, LY293111 1000 nM",5.6 ± 1.0 % control
same,effect on cell number,[4],inhibition
same,morphological changes (phase-contrast microscopy),[5],marked morphological changes
same,apoptosis (TUNEL),"MiaPaCa-2 cells; MiaPaCa-2, 250 nM LY293111 for 24 hours",12.6%
same,apoptosis (TUNEL),"MiaPaCa-2 cells; MiaPaCa-2, 500 nM LY293111 for 24 hours",18.6%
same,Bcl-2 expression (western blot),[6],inhibited expression
same,tumor size vs control group,[7],smaller tumors
same,inhibition at 0.25 µM,[8]; LY293111 250 nM,≥ 50%
same,inhibition at 1 µM,[8]; LY293111 1000 nM,> 95%
same,effect on proliferation (thymidine incorporation and cell number),[9],profound concentration-dependent and time-dependent inhibition of proliferation

# Reference: patent US20040053962A1, “Methods for inhibiting proliferation and inducing apoptosis in cancer cells” (priority 2003, published 2004)
